Test results from patent publication US20250263424A1, “KRAS INHIBITORS” (Bristol-Myers Squibb Company, priority 2022, published 2025).

target: Recombinant GMPPNP-loaded KRAS G12C (KRAS-G12C(ON), active form) (Homo sapiens, UniProt P01116, G12C); test: KRAS G12C RAF Disruption Assay (HTRF); assay type: biochemical; conditions: GMPPNP-loaded KRAS G12C 5 nM, GST-RAF1 RBD 9 nM, values given in μM, read-out: KRASG12C RAF Disruption Assay (IC50)
Summary of the method: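 GMPPNP-loaded KRAS G12C (5 nM) preincubated with compound 20 min at room temperature in Tris pH 7.5 buffer with MgCl2, DTT and BSA. GST-RAF1 RBD (9 nM) then added for 20 min, and SA-Tb (0.25 nM) for 3 h. HTRF 520/495 ratio read; IC50 taken from the dose-response curve.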

Sequence of Recombinant GMPPNP-loaded KRAS G12C (KRAS-G12C(ON), active form) (P01116 1-188 isoform P01116-2 G12C): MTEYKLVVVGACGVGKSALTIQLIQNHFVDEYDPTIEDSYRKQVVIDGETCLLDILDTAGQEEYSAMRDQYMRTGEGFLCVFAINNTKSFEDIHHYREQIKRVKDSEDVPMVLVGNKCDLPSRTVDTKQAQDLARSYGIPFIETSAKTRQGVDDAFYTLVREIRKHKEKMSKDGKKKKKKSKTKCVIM

Compound	IC50
CN1CCC[C@H]1COc1nc(N2C[C@H]3CC[C@@H](C2)N3C(=O)/C(F)=C/c2ccccn2)c2cc(Cl)c(-c3cc(O)cc4ccccc34)c(F)c2n1 [Example 8, (Z)-1-((1R,5S)-3-(6-chloro-8-fluoro-7-(3-hydroxynaphthalen-1-yl)-2-(((S)-1-methylpyrrolidin-2-yl)methoxy)quinazolin-4-yl)-3,8-diazabicyclo[3.2.1]octan-8-yl)-2-fluoro-3-(pyridin-2-yl)prop-2-en-1-one]	9.6 µM
Cc1cc(N)nc(-c2c(Cl)cc3c(N4CCC5C(C4)CN5C(=O)/C(F)=C/c4nccs4)nc(OC[C@]45CCCN4C[C@H](F)C5)nc3c2F)c1C(F)(F)F (stereo partly drawn) [Example 16, (Z)-1-(3-((7M)-7-(6-amino-4-methyl-3-(trifluoromethyl)pyridin-2-yl)-6-chloro-8-fluoro-2-(((2R,7aR)-2-fluorotetrahydro-1H-pyrrolizin-7a(5H)-yl)methoxy)quinazolin-4-yl)-3,7-diazabicyclo[4.2.0]octan-7-yl)-2-fluoro-3-(thiazol-2-yl)prop-2-en-1-one]	4.2 µM
C#Cc1c(F)ccc2cc(O)cc(-c3c(Cl)cc4c(N5CC6CCC(C5)N6C(=O)/C(F)=C/c5ccccn5)nc(OC[C@@H]5CCCN5C)nc4c3F)c12 (single isomer, unassigned) [Example 20, Isomer 1]	16.5 µM
C#Cc1c(F)ccc2cc(O)cc(-c3c(Cl)cc4c(N5CC6CCC(C5)N6C(=O)/C(F)=C/c5ccccn5)nc(OC[C@@H]5CCCN5C)nc4c3F)c12 (single isomer, unassigned) [Example 20, Isomer 2]	> 100 µM
C[C@H]1CN(C(=O)/C(F)=C/c2nccs2)CCN1c1nc(OC[C@@H]2CCCN2C)nc2c(F)c(-c3cccc4cccc(Cl)c34)c(Cl)cc12 [Example 1, (Z)-1-((3S)-4-(6-chloro-7-(8-chloronaphthalen-1-yl)-8-fluoro-2-(((S)-1-methylpyrrolidin-2-yl)methoxy)quinazolin-4-yl)-3-methylpiperazin-1-yl)-2-fluoro-3-(thiazol-2-yl)prop-2-en-1-one]	49 µM
C[C@H]1CN(C(=O)/C(F)=C/c2ncccn2)CCN1c1nc(OC[C@@H]2CCCN2C)nc2c(F)c(-c3cccc4cccc(Cl)c34)c(Cl)cc12 [Example 2, (Z)-1-((3S)-4-(6-chloro-7-(8-chloronaphthalen-1-yl)-8-fluoro-2-(((S)-1-methylpyrrolidin-2-yl)methoxy)quinazolin-4-yl)-3-methylpiperazin-1-yl)-2-fluoro-3-(pyrimidin-2-yl)prop-2-en-1-one]	61.3 µM
Cc1cc(N)nc(-c2c(Cl)cc3c(N4CC5CCC(C4)N5C(=O)/C(F)=C/c4nccs4)nc(OCC4(CN5CCCCC5)CC4)nc3c2F)c1C(F)(F)F [Example 11, (Z)-1-((1R,5S)-3-((7M)-7-(6-amino-4-methyl-3-(trifluoromethyl)pyridin-2-yl)-6-chloro-8-fluoro-2-((1-(piperidin-1-ylmethyl)cyclopropyl)methoxy)quinazolin-4-yl)-3,8-diazabicyclo[3.2.1]octan-8-yl)-2-fluoro-3-(thiazol-2-yl)prop-2-en-1-one]	5.3 µM
Cc1cc(N)nc(-c2c(Cl)cc3c(N4CC5CC(C4)N5C(=O)/C(F)=C/c4nccs4)nc(OC[C@]45CCCN4C[C@H](F)C5)nc3c2F)c1C(F)(F)F [Example 12, (Z)-1-(3-((7M)-7-(6-amino-4-methyl-3-(trifluoromethyl)pyridin-2-yl)-6-chloro-8-fluoro-2-(((2R,7aR)-2-fluorotetrahydro-1H-pyrrolizin-7a(5H)-yl)methoxy)quinazolin-4-yl)-3,6-diazabicyclo[3.1.1]heptan-6-yl)-2-fluoro-3-(thiazol-2-yl)prop-2-en-1-one]	9.2 µM

same assay, conditions: GMPPNP-loaded KRAS G12C 5 nM, GST-RAF1 RBD 9 nM, values in nM, read-out: KRASG12C RAF Disruption Assay (IC50)

Compound	IC50
Cc1cc(N)nc(-c2c(Cl)cc3c(N4C[C@H]5CC[C@@H]4[C@@H]5NC(=O)/C(F)=C/c4ccccn4)nc(OC[C@]45CCCN4C[C@H](F)C5)nc3c2F)c1C(F)(F)F [Example 45, (2Z)-N-[(1R,4R,7R)-2-[(7M)-2-{[(2R,7aR)-2-fluoro-hexahydro-1H-pyrrolizin-7a-yl]methoxy}-7-[6-amino-4-methyl-3-(trifluoromethyl)pyridin-2-yl]-6-chloro-8-fluoroquinazolin-4-yl]-2-azabicyclo[2.2.1]heptan-7-yl]-2-fluoro-3-(pyridin-2-yl)prop-2-enamide]	0.048 µM
C#Cc1cccc2cccc(-c3ccc4c(N5CCN(C(=O)/C(F)=C/c6nccs6)[C@@H](CC#N)C5)nc(OC[C@@]56CCCN5C[C@H](F)C6)nc4c3F)c12 [Example 86, 2-((S)-4-(7-(8-ethynylnaphthalen-1-yl)-8-fluoro-2-(((2R,7aS)-2-fluorotetrahydro-1H-pyrrolizin-7a(5H)-yl)methoxy)quinazolin-4-yl)-1-((Z)-2-fluoro-3-(thiazol-2-yl)acryloyl)piperazin-2-yl)acetonitrile]	0.044 µM
Cc1cc2[nH]ncc2c(-c2ccc3c(N(C)[C@@H]4CCN(C(=O)/C(F)=C/c5ccccn5)C4)nc(OC[C@@]45CCCN4C[C@H](F)C5)nc3c2F)c1Cl [Example 83, (Z)-1-((3R)-3-((7-(5-chloro-6-methyl-1H-indazol-4-yl)-8-fluoro-2-(((2R,7aS)-2-fluorotetrahydro-1H-pyrrolizin-7a(5H)-yl)methoxy)quinazolin-4-yl)(methyl)amino)pyrrolidin-1-yl)-2-fluoro-3-(pyridin-2-yl)prop-2-en-1-one]	0.022 µM
CN1CCC[C@H]1COc1nc(N2CCN(C(=O)/C(F)=C/c3nccs3)[C@@H](CC#N)C2)c2ccc(-c3c(O)cccc3F)c(F)c2n1 [Example 56, 2-((2S)-1-((Z)-2-fluoro-3-(thiazol-2-yl)acryloyl)-4-(8-fluoro-7-(2-fluoro-6-hydroxyphenyl)-2-(((S)-1-methylpyrrolidin-2-yl)methoxy)quinazolin-4-yl)piperazin-2-yl)acetonitrile]	0.27 µM
C#Cc1cccc2cccc(-c3ccc4c(N5CCN(C(=O)/C(F)=C/c6ccccn6)C[C@@H]5C)nc(OC[C@@]56CCCN5C[C@H](F)C6)nc4c3F)c12 [Example 88, (Z)-1-((S)-4-(7-(8-ethynylnaphthalen-1-yl)-8-fluoro-2-(((2R,7aS)-2-fluorotetrahydro-1H-pyrrolizin-7a(5H)-yl)methoxy)quinazolin-4-yl)-3-methylpiperazin-1-yl)-2-fluoro-3-(pyridin-2-yl)prop-2-en-1-one]	0.043 µM
N#CC[C@H]1CN(c2nc(OC[C@@]34CCCN3C[C@H](F)C4)nc3c(F)c(-c4cccc5cccc(Cl)c45)ccc23)CCN1C(=O)/C(F)=C/c1ncccn1 [Example 42, 2-((S)-4-(7-(8-chloronaphthalen-1-yl)-8-fluoro-2-(((2R,7aS)-2-fluorotetrahydro-1H-pyrrolizin-7a(5H)-yl)methoxy)quinazolin-4-yl)-1-((Z)-2-fluoro-3-(pyrimidin-2-yl)acryloyl)piperazin-2-yl)acetonitrile]	0.088 µM
CN1CCC[C@H]1COc1nc(N2CCN(C(=O)/C(F)=C/c3ncccn3)[C@@H](CC#N)C2)c2ccc(-c3cccc4cccc(Cl)c34)c(F)c2n1 [Example 38, 2-((S)-1-((Z)-2-fluoro-3-(pyrimidin-2-yl)acryloyl)-4-(8-fluoro-7-(8-chloronaphthalen-1-yl)-2-(((S)-1-methylpyrrolidin-2-yl)methoxy)quinazolin-4-yl)piperazin-2-yl)acetonitrile]	0.13 µM
